# Source: paper PMC12022980, “Rational Design of PROTAC Linkers Featuring Ferrocene as a Molecular Hinge to Enable Dynamic Conformational Changes” (Journal of the American Chemical Society, 2025)
# Read-outs that look alike come from different tables or passages of the source.
# Key:
# [1] = ChromLogD (chromatographic); format: physicochemical; conditions: HPLC on Hypersil GOLD-C18 column, pH 7.4
# Experimental: For the permeabilised-cell assay, 10 µL of digitonin was added, and plates were incubated in darkness for 5 minutes to allow permeabilisation. In each well 10 µL of the 10x PROTAC and vehicle control dilutions were dispensed. A 100x NanoBRET tracer solution (50 µM for VHL permeabilised-cell assay) was prepared with 100% DMSO, then diluted to a 20x solution with tracer dilution buffer. A 5 µL volume of tracer was dispensed into each well at a final concentration of 0.5 µM, and the plate was mixed at 300 RPM for 15 seconds. Finally, 50 µL of a 3x substrate solution (8.8 µL NanoBRET Nano-Glo substrate and 3,500 µL Opti-MEM) was added, and plates were incubated for 1 minute at room temperature before reading on a GloMax Discover as […]
# HiBiT Lytic Assay with Zosuquidar Co-treatment
# A modified HiBiT lytic assay was used to assess the activity of zosuquidar on the BET degradation. […]
# Luminescence was measured using the GloMax® Multiplex Luminescence and Fluorescence Protocol for 96-well plates. The luminescence signal for each well was normalised to the fluorescence signal and further normalised to the mean values from iPrOH-treated controls, then expressed as a ratio relative to the vehicle control. Curve fitting and DC50 values were determined in GraphPad Prism v.10.0.3 using nonlinear regression with a three-parameter logistic model to calculate DC50 values.
# The stock solution of each test item was prepared from a 10mM stock in iPrOH, which was further diluted 1:50 with […] to obtain a 0.2 mM solution (4 µL of the test item stock solution is diluted with 196 µL DMSO) in insert vials. The samples were analysed on an HPLC system equipped with a HPLC-ThermoScientific Hypersil GOLD-C18 column (2.1 x 50 mm, 1.9 µm) and by MS detection using electrospray ionization (ESI) and Atmospheric Pressure Chemical Ionization (APCI) on a Shimadzu LCMS 2050. […]
# of 1 mL/min and a column temperature of 40 °C. […] Data were analysed with Shimadzu Open Solution Data Browser to obtain the RTs of the peak for each individual compound and standards. […]
# Plasma stability assay = format: in vitro ADME; conditions: mouse plasma; read-out: stability T1/2 in mouse plasma
# Experimental: Frozen plasma was thawed at 37 °C and centrifuged at 3000 rpm for 8 min to remove clots, and the supernatant was used in the experiment. The pH of the plasma was recorded, and only the pH range between 7.4 and 8 was used. The plasma and compound solution were prewarmed to 37 °C. 10 µL of prewarmed testing compound or reference compound (procaine) solution (20 μM in 0.05 mM sodium phosphate buffer (pH 7.4) with 0.5% BSA) was mixed with 90 μL of plasma at different time points to allow for 5, 15, 30, 45, and 60 min of incubation time. For 0 min, the plasma was mixed with vehicle only. Acetonitrile was added to the compound and plasma mixture to quench the reaction, and the resulting mixture was centrifuged (5594g for 15 min). The
# VHL = molecular target: T1, VHL (Homo sapiens, UniProt P40337); assay: NanoBRET VHL target engagement, live-cell mode; format: cell-based; conditions: for IC50: HEK293 transfected with VHL-NanoLuc, live cells, tracer 1 μM
# T1 construct: host or cells: HEK293, transient transfection
# T1 sequence (P40337 whole entry): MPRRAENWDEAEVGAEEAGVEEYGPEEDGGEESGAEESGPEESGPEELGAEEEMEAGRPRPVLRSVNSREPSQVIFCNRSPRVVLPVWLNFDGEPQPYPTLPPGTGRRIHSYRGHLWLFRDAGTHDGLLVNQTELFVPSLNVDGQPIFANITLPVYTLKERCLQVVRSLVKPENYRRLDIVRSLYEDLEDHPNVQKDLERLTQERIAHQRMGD
# Excerpt: To this end, we assessed the PROTAC cellular permeability by evaluating VHL target engagement using the Promega NanoBRET TE Intracellular E3 Ligase.[62] Current PROTAC permeability assays use artificial systems like PAMPA and Caco-2, designed for small molecules but not always effective for PROTACs due to their low permeability, high molecular weight and assay caveats (i.e., unspecific binding and low recovery).[63],[64] The NanoBRET assay is a high-throughput method validated for measuring E3 ligase engagement in live and permeabilised cells. The assay allows to rank PROTAC intracellular availability through competitive probe displacement and offers a simple workflow for prioritising compounds based on properties associated with permeability. […] Specifically, in the live-cell mode, the assay measures the apparent cellular affinity, where the plasma membrane is intact and can impede the compound’s access to its target. In the permeabilised-cell mode, the barrier posed by the plasma membrane is removed and the intrinsic affinity of the compound for target is measured. […] The ratio of potencies between live-cell and permeabilised-cell modes, referred to as the relative-binding affinity (RBA) value increases as intracellular availability decreases and is thus a metric for assessing a PROTAC̀s cellular availability. […]
# [2] = Kinetic solubility in phosphate buffer and FeSSIF; format: physicochemical; conditions: kinetic from iPrOH stock
# Experimental: Solubility in Phosphate Buffer and Fed State Simulated Intestinal Fluid (FeSSIF) 8 µL of reference or test compound stock solution (10 mM in iPrOH) was added to 792 μL of 100 mM phosphate buffer (pH 7.4) or FeSSIF (pH 5.8). The resulting mixture was shaken for 1 h (1000 rpm) at room temperature and then centrifuged for 10 min (12 000 rpm) to remove the undissolved particles. The supernatant was collected and diluted 10 times and 100 times separately with 100 mM phosphate buffer or FeSSIF. Five microliters of the supernatant samples (no diluted, 10 times diluted, 100 times diluted) were mixed with 95 μL of acetonitrile (containing internal standard) separately before injecting into LC-MS/MS for analysis. […]
# [3] = FeSSIF pH 5.8, read-out: kinetic solubility FeSSIF (pH 5.8)
# [4] = phosphate buffer, aqueous buffer, PBS pH 7.4, read-out: kinetic solubility PBS (pH 7.4)
Compound,chromatographic logD [1],half-life at 2 µM (Plasma stability assay) [h],AI (availability index = RBAPROTAC ÷ RBAVH298) (VHL),RBA (relative binding affinity = IC50live ÷ IC50perm) (VHL),fold lower potency in live-cell vs permeabilised-cell assay (VHL) [fold],IC50 (VHL) [nM],"solubility kinetic at 1 h [2, 3] [µM]","solubility kinetic at 1 h [2, 4] [µM]"
Cc1ncsc1-c1ccc(CNC(=O)[C@@H]2C[C@@H](O)CN2C(=O)[C@@H](NC(=O)CCCCCOCCOCCCCCC(=O)Nc2cccc3c2C(=O)N(C2CCC(=O)NC2=O)C3=O)C(C)(C)C)cc1 (stereo partly drawn) [14a],3.7,0.557,4.2,4.4,4,1330,59.5,8.7
Cc1ncsc1-c1ccc(CNC(=O)[C@@H]2C[C@@H](O)CN2C(=O)[C@@H](NC(=O)COCCOCCOCCOCCOCCOCC(=O)N[C@H](C(=O)N2C[C@H](O)C[C@H]2C(=O)NCc2ccc(-c3scnc3C)cc2)C(C)(C)C)C(C)(C)C)cc1 [CM11],3.2,3.9,1.4,1.4,–,450,38.6,58.2
